Data as given in patent publication US20250387771A1, “COMPOSITION COMPRISING BIODEGRADABLE MICROCAPSULES” (priority 2022, published 2025).

Test system: biological contamination of microcapsule compositions
Experiment: Preservation of microcapsule compositions against biological contamination over time by conventional preservation agents
Details: agent used alone; one month or more

| Compound | Prevention of biological contamination of microcapsule compositions over time |
| --- | --- |
| O=C(O)c1ccccc1 [benzoic acid] | unable, when used alone, to prevent the biological contamination of microcapsule compositions over time |
| p-hydroxybenzoic esters | unable, when used alone, to prevent the biological contamination of microcapsule compositions over time |
